Data taken from patent US12303509B2, “Compounds for the treatment of BRAF-associated diseases and disorders” (Pfizer Inc., priority 2020, dated 2025).
Read-outs that look alike come from different tables or passages of the source.

What was measured:
[1] = molecular target: full-length FLAG-tagged B-Raf(V600E) (Homo sapiens (Human), UniProt P15056, V600E); assay: BRAF V600E enzyme assay (TR-FRET competitive displacement); assay type: binding; conditions: averaged IC50; TR-FRET tracer displacement, 60 min
How it was run: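 Displacement of 50 nM Tracer 1710 from 5 nM full-length N-terminally FLAG-tagged B-Raf(V600E), detected by TR-FRET with 0.5 nM Eu anti-FLAG antibody, in 25 mM HEPES pH 7.4, 10 mM MgCl2, 2% DMSO; 60 min at ~22 °C. Compounds 11-point, 3-fold from 10 μM; IC50 from 4-parameter fit at 50 POC.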

A375 cells = assay: Cellular phospho-ERK inhibition assay in A375 cells; assay type: cell-based; conditions: 2 hours treatment, read-out: A357 cell IC50
How it was run: (§1)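 A375 (DMEM) or H1755 (RPMI) cells in 10% FBS treated 2 h at 37 °C with 9-point series, 66 pM–10 μM, 0.25% DMSO. Phospho-ERK1/2 (Thr202/Tyr204) measured by In Cell Western, normalised to GAPDH and to DMSO and 10 μM binimetinib controls; IC50 by 4-parameter fit.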

H1755 cells = assay: Cellular phospho-ERK inhibition assay in H1755 cells; assay type: cell-based; conditions: read-out: H1755 Cell IC50
How it was run: as §1

[2] = system: LLC-PK1 or MDCKII cell monolayer; assay: MDR1 LLC-PK1 and BCRP MDCKII permeability assay: permeability coefficient (Papp); assay type: in vitro ADME; conditions: Papp, test concentration 1 μM, 2 hours incubation
Source text: (§2) Final organic concentration in the assay was 1%.

BCRP [3] = conditions: reported, Mittapalli et al.; cited from earlier work
[4] = system: NCI-H1666 (BRAF G466V) cells; assay: Cellular phospho-ERK inhibition assay in NCI-H1666 cells; assay type: cell-based; conditions: Homo sapiens, 1 hour treatment, read-out: IC50 NCI-H1666 pERK
Procedure: (§3) The compounds of Example 13, Example 14 and Example 126 were evaluated in a phospho-ERK assay in two mutant BRAF Class III cell lines: NCI-H1666 (BRAF^G466V) and WM3629 cells (BRAF^D594G/NRAS^G12D). NCI-H1666 cells were obtained from the American Type Culture Collection (ATCC, Rockville, MD) and WM3629 cells were obtained from Rockland Immunochemicals (Limerick, PA). Cells were maintained in RPMI growth medium containing 10% FBS.
(§4) Cells were harvested according to standard protocols, counted, and plated onto flat-bottom, 96-well tissue culture plates (Costar #3599) at 2.5×10^4 cells/well in 100 μL/well of growth medium containing 10% FBS. After an overnight incubation at 37° C. with 5% CO2 cells were treated for 1 hour at 37° C., 5% CO2 with inhibitors prepared as a 9-point, 1:3.33 fold dilution series with final compound concentrations ranging from 66 pM-10 μM and a constant DMSO concentration of 0.25%. Control wells contained either 0.25% DMSO alone (uninhibited control) or 10 μM binimetinib (complete inhibition control). The levels of phosphorylated ERK were determined using an In Cell Western protocol: following compound incubation, growth medium was discarded, and cells were fixed with 0.4% formaldehyde in PBS for 20 minutes at room temperature. Cells were permeabilized with 100% methanol for 10 minutes at room temperature. Plates were washed with PBS containing 0.05% Tween-20 and blocked for 1 hour at room temperature with LI-COR Blocking Buffer (LI-COR Biosciences; Cat. #927-40000). Plates were then incubated for 2 hours at room temperature with 50 μL of a 1:400 dilution of anti-phospho-ERK1/2 (Thr202/Tyr204) (Cell Signaling; Cat. #9101) and a 1:1000 dilution of anti-GAPDH (Millipore; Cat. #MAB374) in LI-COR blocking buffer containing 0.05% Tween-20. […] Plates were analyzed by reading on an Odyssey CLx infrared scanner. […]
(§5) [formula] • Where: • Xmax d Average Uninhibited Controls • Xmin Average Complete Inhibition Controls • IC50 values were then calculated using a 4-parameter fit in XLfit software and are shown in Table A2.

[5] = system: WM3629 cells (BRAF D594G/NRAS G12D); assay: Cellular phospho-ERK inhibition assay in WM3629 cells; assay type: cell-based; conditions: 1 hour treatment, read-out: IC50 WM3629 pERK
Procedure: as §3, §4, §5

[6] = system: NCI-H1666 (BRAF G466V) cells; assay: Proliferation assay (CellTiter-Glo) in NCI-H1666 cells; assay type: cell-based; conditions: Homo sapiens, 3-5 day incubation
Procedure: as §3, with “proliferation” for “phospho-ERK”
(§6) Cells were harvested according to standard protocols, counted, and plated onto flat-bottom, 96-well tissue culture plates (Costar #3599) at 2000-5000 cells/well in 100 μL/well of growth medium containing 10% FBS. Cells were incubated at 37° C. with 5% CO2 overnight then treated with inhibitors prepared as a 9-point, 1:3.33 fold dilution series with final compound concentrations ranging from 66 pM-10 μM and a constant DMSO concentration of 0.25%. Control wells contained 0.25% DMSO alone. After a 3-5 day incubation at 37° C., 5% CO2, cell viability was determined by adding 100 μL CellTiter-Glo® Reagent (Promega) to each well and incubated for 15 minutes at room temperature. “Day 0” controls were determined by performing CellTiter-Glo© assay on DMSO control wells at the time of compound treatment (“Day 0” control=0 POC). Luminescence was measured on a Cytation 5 plate reader (BioTek) and values were converted to POC using the following equation:
(§7) [formula] • Where: • Xmax Average DMSO Controls • Xmin Average “Day 0” DMSO Controls • IC50 values were calculated using a 4-parameter fit in XLfit software and are shown in Table A2.

[7] = system: WM3629 cells (BRAF D594G/NRAS G12D); assay: Proliferation assay (CellTiter-Glo) in WM3629 cells; assay type: cell-based; conditions: 3-5 day incubation
Procedure: as §3, with “proliferation” for “phospho-ERK”
as §6, §7

[8] = MDR1 LLC-PK1 and BCRP MDCKII permeability assay: permeability coefficient (Papp); assay type: in vitro ADME
Source text: as §2

P-gp (MDR1) = P-gp (MDR1) (Homo sapiens (Human), UniProt P08183); assay: MDR1 LLC-PK1 permeability assay: efflux ratio; assay type: in vitro ADME; conditions: pig
Source text: as §2

BCRP [9] = molecular target: BCRP (Homo sapiens (Human), UniProt Q9UNQ0); assay: BCRP MDCKII permeability assay: efflux ratio; assay type: in vitro ADME; conditions: dog
Chain of BCRP (Homo sapiens (Human), UniProt Q9UNQ0) (Q9UNQ0 whole entry): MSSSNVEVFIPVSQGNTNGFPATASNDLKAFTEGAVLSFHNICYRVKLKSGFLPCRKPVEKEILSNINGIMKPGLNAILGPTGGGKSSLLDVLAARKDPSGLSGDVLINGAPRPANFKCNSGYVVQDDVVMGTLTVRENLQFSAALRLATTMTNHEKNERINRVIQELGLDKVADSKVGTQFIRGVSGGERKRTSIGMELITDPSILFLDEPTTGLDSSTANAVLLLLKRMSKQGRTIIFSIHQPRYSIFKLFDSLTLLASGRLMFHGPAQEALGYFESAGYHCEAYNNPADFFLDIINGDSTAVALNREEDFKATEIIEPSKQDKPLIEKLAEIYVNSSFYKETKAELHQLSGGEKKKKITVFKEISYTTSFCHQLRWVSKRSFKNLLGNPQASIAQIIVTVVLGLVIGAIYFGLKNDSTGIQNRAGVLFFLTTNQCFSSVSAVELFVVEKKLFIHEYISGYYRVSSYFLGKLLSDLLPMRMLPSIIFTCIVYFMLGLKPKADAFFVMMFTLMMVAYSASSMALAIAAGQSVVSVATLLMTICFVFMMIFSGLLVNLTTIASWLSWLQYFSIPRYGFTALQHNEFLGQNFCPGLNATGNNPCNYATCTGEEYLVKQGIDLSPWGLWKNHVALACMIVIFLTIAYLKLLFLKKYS

Chain of full-length FLAG-tagged B-Raf(V600E) (P15056 whole entry V600E): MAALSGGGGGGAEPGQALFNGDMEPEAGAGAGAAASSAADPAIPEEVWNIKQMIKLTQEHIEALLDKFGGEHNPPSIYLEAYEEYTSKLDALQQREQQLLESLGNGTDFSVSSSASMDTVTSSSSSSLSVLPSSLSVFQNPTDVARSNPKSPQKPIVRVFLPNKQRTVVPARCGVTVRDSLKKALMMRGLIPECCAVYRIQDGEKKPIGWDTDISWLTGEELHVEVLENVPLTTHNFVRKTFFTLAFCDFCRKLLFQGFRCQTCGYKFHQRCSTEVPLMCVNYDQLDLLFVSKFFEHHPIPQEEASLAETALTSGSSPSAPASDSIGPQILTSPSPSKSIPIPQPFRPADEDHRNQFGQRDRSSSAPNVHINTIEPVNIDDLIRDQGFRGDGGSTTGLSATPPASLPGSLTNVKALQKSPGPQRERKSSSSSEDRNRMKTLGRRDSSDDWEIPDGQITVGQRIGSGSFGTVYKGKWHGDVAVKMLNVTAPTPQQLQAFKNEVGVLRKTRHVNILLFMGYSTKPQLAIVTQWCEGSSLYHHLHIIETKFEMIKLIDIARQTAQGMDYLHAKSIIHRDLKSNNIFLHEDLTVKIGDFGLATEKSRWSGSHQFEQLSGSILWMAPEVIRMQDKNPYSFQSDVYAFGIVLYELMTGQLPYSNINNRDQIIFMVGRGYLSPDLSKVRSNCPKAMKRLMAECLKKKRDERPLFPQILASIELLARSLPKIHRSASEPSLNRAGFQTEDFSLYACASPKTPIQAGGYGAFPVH
Chain of P-gp (MDR1) (P08183 whole entry, species assumed): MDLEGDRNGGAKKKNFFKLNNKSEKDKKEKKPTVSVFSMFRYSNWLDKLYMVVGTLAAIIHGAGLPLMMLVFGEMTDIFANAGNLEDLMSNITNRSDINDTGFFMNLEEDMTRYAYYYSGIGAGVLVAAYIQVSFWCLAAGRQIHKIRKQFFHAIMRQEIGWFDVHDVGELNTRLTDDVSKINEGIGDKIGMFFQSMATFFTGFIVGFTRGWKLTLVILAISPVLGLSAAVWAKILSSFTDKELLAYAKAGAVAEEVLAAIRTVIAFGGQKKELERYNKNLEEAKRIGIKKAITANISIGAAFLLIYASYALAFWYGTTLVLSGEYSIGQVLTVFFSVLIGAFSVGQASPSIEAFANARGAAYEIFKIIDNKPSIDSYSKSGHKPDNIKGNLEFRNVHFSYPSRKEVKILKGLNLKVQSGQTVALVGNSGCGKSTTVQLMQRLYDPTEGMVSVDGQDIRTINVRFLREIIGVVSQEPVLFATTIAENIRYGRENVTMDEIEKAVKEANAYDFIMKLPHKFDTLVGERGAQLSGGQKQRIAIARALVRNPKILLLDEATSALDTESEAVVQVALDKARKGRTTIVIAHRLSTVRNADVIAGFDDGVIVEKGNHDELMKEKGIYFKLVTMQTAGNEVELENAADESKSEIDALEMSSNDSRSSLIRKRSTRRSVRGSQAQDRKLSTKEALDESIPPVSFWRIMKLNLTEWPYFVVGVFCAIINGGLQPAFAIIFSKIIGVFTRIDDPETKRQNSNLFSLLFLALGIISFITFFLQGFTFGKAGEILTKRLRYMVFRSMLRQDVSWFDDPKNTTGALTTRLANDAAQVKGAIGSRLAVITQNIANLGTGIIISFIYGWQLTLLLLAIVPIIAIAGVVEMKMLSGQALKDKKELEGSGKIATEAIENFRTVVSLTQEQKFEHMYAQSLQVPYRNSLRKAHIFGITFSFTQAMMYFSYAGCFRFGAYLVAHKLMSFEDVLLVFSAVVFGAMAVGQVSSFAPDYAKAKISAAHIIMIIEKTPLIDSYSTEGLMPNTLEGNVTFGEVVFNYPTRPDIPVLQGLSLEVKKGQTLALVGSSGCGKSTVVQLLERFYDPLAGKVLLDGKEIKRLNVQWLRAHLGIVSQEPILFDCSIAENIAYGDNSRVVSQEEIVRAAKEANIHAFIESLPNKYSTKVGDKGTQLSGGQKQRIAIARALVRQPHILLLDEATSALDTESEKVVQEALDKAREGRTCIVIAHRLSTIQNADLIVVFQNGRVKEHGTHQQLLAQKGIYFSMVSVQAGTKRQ

CCN(C)S(=O)(=O)Nc1ccc(F)c(Oc2ccc3ncn(C)c(=O)c3c2F)c1Cl [Example 112, N-(2-chloro-4-fluoro-3-((5-fluoro-3-methyl-4-oxo-3,4-dihydroquinazolin-6-yl)oxy)phenyl)-(N-ethyl-N-methyl)-sulfamide]
IC50 [1]: 20 nM
IC50 (A375 cells; A375 cells (head prints A357)): 24 nM
IC50 (H1755 cells; 2 hours treatment): 105 nM
Permeability [2]: 28 *10^−6 cm/s

CN(C)S(=O)(=O)Nc1ccc(F)c(Oc2ccc3ncn(C)c(=O)c3c2F)c1Cl [Example 111, N-(2-chloro-4-fluoro-3-((5-fluoro-3-methyl-4-oxo-3,4-dihydroquinazolin-6-yl)oxy)phenyl)-(N,N-dimethyl)-sulfamide]
IC50 [1]: 10 nM
IC50 (A375 cells; A375 cells (head prints A357)): 12 nM
IC50 (H1755 cells; 2 hours treatment): 80 nM
Permeability [2]: 29 *10^−6 cm/s

CC(C)(C)c1nc(-c2cccc(NS(=O)(=O)c3c(F)cccc3F)c2F)c(-c2ccnc(N)n2)s1 [dabrafenib]
BCRP efflux ratio (BCRP [3]): 21.0

Cn1cnc2ccc(Nc3c(F)ccc(NS(=O)(=O)N4CC(F)C4)c3Cl)c(Cl)c2c1=O [Example 126, N-(2-chloro-3-((5-chloro-3-methyl-4-oxo-3,4-dihydroquinazolin-6-yl)amino)-4-fluorophenyl)-3-fluoroazetidine-1-sulfonamide]
IC50 (A375 cells; Homo sapiens, A-375, A375 cells (head prints A357)): 2 nM
IC50 (H1755 cells; Homo sapiens, NCI-H1755, 2 hours treatment): 26 nM
IC50 [4]: 15 nM
IC50 [5]: 1.4 nM
IC50 [6]: 390 nM
IC50 [7]: > 10 µM
Papp at 2 h, 1 µM [8]: 44 ×10⁻⁶ cm/s
efflux ratio at 2 h, 1 µM (P-gp (MDR1)): 2.1
efflux ratio at 2 h, 1 µM (BCRP [9]): 4.2

CCCS(=O)(=O)Nc1ccc(F)c(C(=O)c2c[nH]c3ncc(-c4ccc(Cl)cc4)cc23)c1F [vemurafenib]
BCRP efflux ratio (BCRP [3]): 495
